Assay results as given in patent EP0552417B1, “Cyclic peptides and use thereof” (priority 1991, dated 1993).
Non-standard residues stand in square brackets, D forms with d. Residues, ends and D or L forms follow the SMILES beside them. *: point of attachment. 1Nal = N[C@@H](Cc1cccc2ccccc12)C(=O)O; Bn = c1ccc(C*)cc1

Tests used:
NK2 receptor = target: T1, NK2 receptor (Bos taurus, UniProt P05363); experiment: Assay of affinity for receptor (3): binding inhibiting activity on NK2 receptor, 125I-neurokinin A, membrane fraction of bovine third stomach inner wall; details: 125I-NKA, 25°C, 3 hours
T1 construct: The membrane fraction containing the receptor was prepared from the inner wall of the bovine third stomach; tissue Kyoto Chuo Chikusan Fukuseibutsu Oroshi Kyoukai (tissue); host or cells: inner wall of bovine third stomach, membrane fraction
T1 sequence (P05363 1-384): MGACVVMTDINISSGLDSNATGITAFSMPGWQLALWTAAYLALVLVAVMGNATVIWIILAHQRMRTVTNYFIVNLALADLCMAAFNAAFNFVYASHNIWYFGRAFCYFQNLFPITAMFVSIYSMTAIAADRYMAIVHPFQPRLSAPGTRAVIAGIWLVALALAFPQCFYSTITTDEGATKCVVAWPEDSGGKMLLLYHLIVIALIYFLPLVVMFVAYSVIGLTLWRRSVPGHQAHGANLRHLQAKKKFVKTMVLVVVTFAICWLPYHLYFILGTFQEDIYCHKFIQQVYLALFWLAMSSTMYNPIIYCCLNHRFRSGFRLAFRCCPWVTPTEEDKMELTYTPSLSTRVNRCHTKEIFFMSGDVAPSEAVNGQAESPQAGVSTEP
Method: Assay of Affinity for Receptor (3) ... Binding Inhibiting Activity on NK2 Receptor
The method of Paul L. M. Van Giersbergen et al. [Proc. Natl. Acad. Sci. U.S.A., 88, 1661 (1991) was modified for this assay. The membrane fraction containing the receptor was prepared from the inner wall of the bovine third stomach (purchased from Kyoto Chuo Chikusan Fukuseibutsu Oroshi Kyoukai).
The inner wall of the bovine third stomach stored at-80°C was cut to 1 cm X 1 cm or less, and disrupted in 3 liters/kg of 50 mM Tris-HCl buffer (pH 7.4) supplemented with 120 mM sodium chloride, 5 mM potassium chloride, 0.02% BSA and 5% sucrose, using a polytron homogenizer (Kinematika, Germany). Then, the disrupted product was centrifuged at 1,000 X g for 10 minutes. The supernatant was further centrifuged at 45,000 X g for 20 minutes. The precipitate was suspended in 200 ml of 50 mM Tris-HCl buffer (pH 7.4) supplemented with 300 mM potassium chloride, 10 mM ethylenediaminetetraacetic acid, 0.1 mM phenylmethylsulfonium fluoride and 0.02% BSA, and gently stirred under ice cooling for 60 minutes. The suspension was centrifuged at 45,000 X g for 20 minutes. The precipitate was washed with 200 ml of 50 mM Tris-HCl buffer (pH 7.4), and stored in the frozen state at -40°C as a receptor sample.
This sample was suspended in a reaction buffer solution [50 mM Tris-HCl buffer (pH 7.4), 0.02% bovine serum albumin and 4 mM manganese chloride] so as to give a protein concentration of 0.7 mg/ml, and 100 µl thereof was used for reaction. A test sample and ^125I-NKA (0.61 KBq, ^125I-neurokinin A, 81.4 TBq/mmol, Du Pont/NEN Research Products, U.S.A.) were also added, and reacted in 0.2 ml of the reaction buffer solution at 25°C for 3 hours. The reaction mixture was rapidly filtered through a glass filter (GF/B, Whatman, U.S.A.) using a cell harvester (Type 290PHD, Cambridge Technology Inc.) to terminate the reaction, and washed 3 times with 250 µl of 50 mM Tris-HCl buffer (pH 7.4) supplemented with 0.02% bovine serum albumin. The radioactivity left on the filter was measured with a gamma-ray counter. Results are shown in Table 1 as the binding inhibiting activity (IC50, unit: µM) on the NK2 receptor.

ETB = ETB radio receptor assay *2, 125I-endothelin-1, guinea pig kidney crude membrane fraction; format: binding, Guinea pigs; details: relative activity, 37 °C, 90 minutes
Method in brief: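 Radioligand binding used crude guinea pig kidney membranes (2.1 µg protein) with 740 Bq 125I-endothelin-1. Incubation was 90 min at 37 °C in 50 mM Tris-HCl pH 7.4, 0.1 mM PMSF, 1 mM EDTA, 0.2% BSA. Bound radioactivity was collected by GF/B filtration and measured by gamma counting.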

Row | SMILES | IC50 (NK2 receptor) [nM] | Binding Activity on ET Receptor (R. act.) ETB*2 (ETB)
1 | CC(C)C[C@@H]1NC(=O)[C@@H](CC(C)C)NC(=O)[C@H](CC(=O)O)NC(=O)[C@H](Cc2c[nH]c3ccccc23)NC(=O)[C@@H](CC(=O)O)NC(=O)[C@@H](Cc2c[nH]c3ccccc23)NC1=O [Example 8, cyclo[-D-Asp-Trp-Asp-D-Leu-Leu-D-Trp-]] (cyclo(D[dL]L[dW][dD]W)) | 6400 | 100
2 | CC(C)C[C@@H]1NC(=O)[C@@H](CC(C)C)NC(=O)[C@H](CC(=O)O)NC(=O)[C@H](Cc2cccc3ccccc23)NC(=O)[C@@H](CC(=O)O)NC(=O)[C@@H](Cc2c[nH]c3ccccc23)NC1=O [Example 23, Cyclo[-D-Asp-Nal(1)-Asp-D-Leu-Leu-D-Trp-]] (cyclo([1Nal]D[dL]L[dW][dD])) | 2100 | 7.7
3 | CC(C)C[C@@H]1NC(=O)[C@@H](CC(C)C)NC(=O)[C@H](CCC(=O)O)NC(=O)[C@H](Cc2c[nH]c3ccccc23)NC(=O)[C@@H](CC(=O)O)NC(=O)[C@@H](Cc2c[nH]c3ccccc23)NC1=O [Example 34, Cyclo[-D-Asp-Trp-Glu-D-Leu-Leu-D-Trp-]] (cyclo(E[dL]L[dW][dD]W)) | 7400 | 44
4 | CC(C)C[C@@H]1NC(=O)[C@H](Cc2c[nH]c3ccccc23)NC(=O)[C@@H](CC(=O)O)NC(=O)[C@@H](Cc2c[nH]c3ccccc23)NC(=O)[C@H](CC(C)C)NC(=O)[C@@H](CC(C)C)NC1=O [Example 35, Cyclo[-D-Asp-Trp-Leu-D-Leu-Leu-D-Trp-]] (cyclo(L[dL]L[dW][dD]W)) | 52 | 24
5 | CC(C)C[C@@H]1NC(=O)[C@@H](CC(C)C)NC(=O)[C@@H]2CCCN2C(=O)[C@H](Cc2c[nH]c3ccccc23)NC(=O)[C@@H](CC(=O)O)NC(=O)[C@@H](Cc2c[nH]c3ccccc23)NC1=O [Example 36, Cyclo[-D-Asp-Trp-Pro-D-Leu-Leu-D-Trp-]] (cyclo(L[dW][dD]WP[dL])) | 1100 | 42
6 | CC(C)C[C@@H]1NC(=O)[C@@H](CC(C)C)NC(=O)[C@H](CO)NC(=O)[C@H](Cc2c[nH]c3ccccc23)NC(=O)[C@@H](CC(=O)O)NC(=O)[C@@H](Cc2c[nH]c3ccccc23)NC1=O [Example 37, Cyclo[-D-Asp-Trp-Ser-D-Leu-Leu-D-Trp-]] (cyclo(L[dW][dD]WS[dL])) | 280 | 18
7 | CC(C)C[C@@H]1NC(=O)[C@@H](CC(C)C)NC(=O)[C@H](COCc2ccccc2)NC(=O)[C@H](Cc2c[nH]c3ccccc23)NC(=O)[C@@H](CC(=O)O)NC(=O)[C@@H](Cc2c[nH]c3ccccc23)NC1=O [Example 38, Cyclo[-D-Asp-Trp-Ser(Bzl)-D-Leu-Leu-D-Trp-]] (cyclo(L[dW][dD]WS(Bn)[dL])) | 70 | 170
